Measured values: US20260151375A1, “CDK2 INHIBITORS AND METHODS OF USING THE SAME” (Cedilla Therapeutics, Inc., priority 2022, published 2026)

Experiments:
CDK2/Cyclin E1 = target: T1, CDK2/Cyclin E1 (Homo sapiens, UniProt P24941); experiment: Caliper Assay (LabChip EZ Reader mobility shift assay), inhibition of CDK2/Cyclin E1 activity; type: biochemical; details: 2.5 nM CDK2/Cyclin E1(14-475), 100 μM ATP, 30 min preincubation; read-out: Caliper Assay (CDK2/CCNE1): IC50
T1 construct: purchased 14-475
Experimental: Inhibition of CDK2/Cyclin E1 activity in the presence of compounds of the present disclosure was evaluated using a Caliper LabChip® EZ Reader mobility shift assay. In the assay, activated CDK2/Cyclin E1 catalyzes the phosphorylation of a fluorescently tagged peptide 5-FAM-QSPKKG-CONH2 (PerkinElmer, FL Peptide 18) which induces a difference in capillary electrophoresis mobility. The peptide substrate and product were measured, and the conversion ratio was used to determine the inhibition (as % activity and IC50 values) of CDK2/Cyclin E1. Reactions contained 50 mM HEPES pH 7.5, 10 mM MgCl2, 1 mM EDTA, 2 mM DTT, 0.01% Brij35, 0.5 mg/mL BSA, 0.1% DMSO, 2.5 nM CDK2/Cyclin E1(14-475), 100 μM ATP, and 1.5 μM fluorescent peptide substrate.
Dose titrations of inhibitors in 100% DMSO were combined with 3.25 nM CDK2/Cyclin E1(14-475) and 130 μM of ATP in reaction buffer. The mixtures were incubated for 30 minutes before the addition of fluorescent peptide substrate to initiate the kinase reaction. The final conditions were 2.5 nM CDK2/Cyclin E1(14-475), 100 μM ATP, and 1.5 μM fluorescent peptide. The reactions were stopped after 100 minutes with the addition of EDTA (6 mM final EDTA concentration). The stopped reactions were analyzed on a Caliper LabChip© EZ Reader II. The conversion ratios were normalized to yield % activity, plotted against compound concentration, and fit to a four-parameter equation to determine the IC50 for each compound.

Kuramochi cells = experiment: IncuCyte Kuramochi Assay (cell proliferation); type: cell-based; details: 72 h, Kuramochi cells labeled with mApple-H2B, cell count, read-out: IncuCyte - Kuramochi RB-WT: IC50
Experimental: IncuCyte® assay was used to measure the effect of disclosed compounds on cell proliferation. Fluorescent microscopy images of cells were taken immediately after compound treatment and 72 hours later. Image analysis software was used to obtain cell counts as a function of compound concentration. Kuramochi cells labeled with mApple-H2B were seeded on 384-well assay-ready plates. Plates were placed in an IncuCyte® (Sartorius) and scanned at 0 and 72 hours. IncuCyte® software was used to count the number of fluorescent nuclei in each well. The fold change in cell count from 0 to 72 hours in wells treated with increasing compounds concentrations (10 pts, ½ log dilution, 20 μM top concentration) was normalized to DMSO control wells. The normalized cell counts were fit with dose response curves and a […] was calculated.

`Cc1nc(C)c(C(=O)N2CC(c3nnc(Cc4cccc(C5CCOCC5)n4)o3)C3(C2)CN(C(=O)[C@H]2CC2(C)C)C3)s1` (stereo partly drawn) [I-66, (2-((S)-2,2-dimethylcyclopropane-1-carbonyl)-8-(5-((6-(tetrahydro-2H-pyran-4-yl)pyridin-2-yl)methyl)-1,3,4-oxadiazol-2-yl)-2,6-diazaspiro[3.4]octan-6-yl)(2,4-dimethylthiazol-5-yl)methanone] was tested, and the IC50 (CDK2/Cyclin E1) was 0.1 to 1 µM and the IC50 (Kuramochi cells) was > 10 µM.

With `CC1(C)C[C@@H]1C(=O)N1CC2(CN(C(=O)c3cncs3)CC2c2nnc(Cc3nc4ccccc4o3)o2)C1` (stereo partly shown) [I-67] the IC50 (CDK2/Cyclin E1) was 1 to 10 µM and the IC50 (Kuramochi cells) was > 10 µM.

For `COc1ccc(C(F)(F)c2nnc(C3CN(C(=O)c4cncs4)CC34CN(C(=O)[C@H]3CC3(C)C)C4)o2)cc1` (stereo partly shown) [I-68], the IC50 (CDK2/Cyclin E1) was 0.1 to 1 µM and the IC50 (Kuramochi cells) was > 10 µM.

`CC1(C)C[C@@H]1C(=O)N1CC2(CN(C(=O)c3cncs3)CC2c2nnc(C(F)(F)c3ccc(Br)cc3)o2)C1` (stereo partly shown) [I-69] was tested, and the IC50 (CDK2/Cyclin E1) was 0.1 to 1 µM and the IC50 (Kuramochi cells) was > 10 µM.

With `CC1(C)C[C@@H]1C(=O)N1CC2(CN(C(=O)c3cncs3)CC2c2nnc(C(F)(F)c3ccccc3)o2)C1` (stereo partly shown) [I-70] the IC50 (CDK2/Cyclin E1) was 1 to 10 µM and the IC50 (Kuramochi cells) was > 10 µM.

With `CC1(C)C[C@@H]1C(=O)N1CC2(CN(C(=O)c3cncs3)CC2c2nnc(Cc3ccc4c(c3)CCCO4)o2)C1` (stereo partly shown) [I-71] the IC50 (CDK2/Cyclin E1) was 1 to 10 µM and the IC50 (Kuramochi cells) was > 10 µM.

With `CC1(C)C[C@@H]1C(=O)N1CC2(CN(C(=O)c3cncs3)CC2c2nnc(C(F)(F)c3ccc(C#N)cc3)o2)C1` (stereo partly shown) [I-72] the IC50 (CDK2/Cyclin E1) was 1 to 10 µM and the IC50 (Kuramochi cells) was > 10 µM.

For `CC1(C)C[C@@H]1C(=O)N1CC2(CN(C(=O)c3cncs3)CC2c2nnc(C(F)(F)c3cccc4ccccc34)o2)C1` (stereo partly shown) [I-73], the IC50 (CDK2/Cyclin E1) was 0.1 to 1 µM and the IC50 (Kuramochi cells) was > 10 µM.

With `CC(c1nc(C2CN(C(=O)c3cncs3)CC23CN(C(=O)[C@H]2CC2(C)C)C3)no1)n1ncc2ccccc21` (stereo partly shown) [I-74] the IC50 (CDK2/Cyclin E1) was 1 to 10 µM and the IC50 (Kuramochi cells) was > 10 µM.

For `CC(c1nc(C2CN(C(=O)c3cncs3)CC23CN(C(=O)[C@H]2CC2(C)C)C3)no1)n1cc2ccccc2n1` (stereo partly shown) [I-75], the IC50 (CDK2/Cyclin E1) was 0.1 to 1 µM and the IC50 (Kuramochi cells) was > 10 µM.

`CC1(C)C[C@@H]1C(=O)N1CC2(CN(C(=O)c3cncs3)CC2c2nnc(C(F)(F)c3ccc(F)c(F)c3)o2)C1` (stereo partly shown) [I-76] was tested, and the IC50 (CDK2/Cyclin E1) was 0.1 to 1 µM and the IC50 (Kuramochi cells) was > 10 µM.

For `CC(c1cc[nH]n1)c1nc(C2CN(C(=O)c3cncs3)CC23CN(C(=O)[C@H]2CC2(C)C)C3)no1` (stereo partly drawn) [I-77, (8-(5-(1-(1H-pyrazol-3-yl)ethyl)-1,2,4-oxadiazol-3-yl)-2-((S)-2,2-dimethylcyclopropane-1-carbonyl)-2,6-diazaspiro[3.4]octan-6-yl)(thiazol-5-yl)methanone], the IC50 (CDK2/Cyclin E1) was 1 to 10 µM and the IC50 (Kuramochi cells) was > 10 µM.

For `CC(c1cccc(C2CCOCC2)n1)c1nnc(C2CN(C(=O)c3cncs3)CC23CN(C(=O)[C@H]2CC2(C)C)C3)o1` (stereo partly shown) [I-78], the IC50 (CDK2/Cyclin E1) was 0.1 to 1 µM and the IC50 (Kuramochi cells) was > 10 µM.

`CC(C)(c1cc[nH]n1)c1nc(C2CN(C(=O)c3cncs3)CC23CN(C(=O)[C@H]2CC2(C)C)C3)no1` (stereo partly shown) [I-79] was tested, and the IC50 (CDK2/Cyclin E1) was 1 to 10 µM and the IC50 (Kuramochi cells) was > 10 µM.

With `O=C(c1cncs1)N1CC(c2nnc(Cc3cccc(C4CCOCC4)n3)o2)C2(C1)CN(c1ncco1)C2` (stereo not shown) [I-80] the IC50 (CDK2/Cyclin E1) was > 10 µM and the IC50 (Kuramochi cells) was > 10 µM.

`CC(c1nc(C2CN(C(=O)c3cncs3)CC23CN(C(=O)[C@H]2CC2(C)C)C3)no1)n1nc(Cl)cc1Cl` (stereo partly shown) [I-81] showed an IC50 (CDK2/Cyclin E1) of 1 to 10 µM and an IC50 (Kuramochi cells) of 0.5 to 5 µM.

For `CC(c1nc(C2CN(C(=O)c3cncs3)CC23CN(C(=O)[C@H]2CC2(C)C)C3)no1)n1ccc(C2CCOCC2)n1` (stereo partly shown) [I-82], the IC50 (CDK2/Cyclin E1) was 0.1 to 1 µM and the IC50 (Kuramochi cells) was > 10 µM.

With `CC1(C)C[C@@H]1C(=O)N1CC2(CN(C(=O)c3cncs3)CC2c2nnc(Cc3cccc(C4CCCCO4)n3)o2)C1` (stereo partly shown) [I-83] the IC50 (CDK2/Cyclin E1) was 0.1 to 1 µM and the IC50 (Kuramochi cells) was > 10 µM.

In the case of `CC1(C)C[C@@H]1C(=O)N1CC2(CN(C(=O)c3cnn(Cc4ccccc4)c3)CC2c2noc(COC3CCCC3)n2)C1` (stereo partly shown) [I-84], the IC50 (CDK2/Cyclin E1) is reported as 1 to 10 µM and the IC50 (Kuramochi cells) is reported as > 10 µM.

For `Cc1cc(C)n(Cc2nc(C3CN(C(=O)c4cnn(Cc5ccccc5)c4)CC34CN(C(=O)[C@H]3CC3(C)C)C4)no2)n1` (stereo partly shown) [I-85], the IC50 (CDK2/Cyclin E1) was 1 to 10 µM and the IC50 (Kuramochi cells) was > 10 µM.
